Literature values as cited in publication PMC8513935.

Tests used:
[1] = experimental, compiled by the authors from the literature (the ESI cites the sources)
[2] = derived by the authors as gas->solvent minus gas->water (a hypothetical dry solvent; the ESI), not a two-phase measurement; conditions: 25 C

log K of transfer, gas to solvent ([1]; Hexadecane, 25 C)	log K of transfer, gas to solvent ([1]; Water, 25 C)	SMILES	other results
3.84 log10 K	6.72 log10 K	CCNC(C)=O	–
4 log10 K	3.57 log10 K	Cc1ccnc(C)c1	–
1.82 log10 K	-1.84 log10 K	CC(C)(C)C	log K of transfer, gas to solvent ([1]; Hexane, 25 C): 2.03 log10 K; log K of transfer, gas to solvent ([1]; Methanol, 25 C): 1.4 log10 K; log K of transfer, water to solvent ([2]; Hexadecane): 3.66 log10 K; log K of transfer, water to solvent ([2]; Hexane): 3.87 log10 K; log K of transfer, water to solvent ([2]; Methanol): 3.24 log10 K
3.17 log10 K	5.73 log10 K	CN(C)C=O	log K of transfer, gas to solvent ([1]; Butanone, 25 C): 4.7 log10 K; log K of transfer, gas to solvent ([1]; Octan-1-ol, 25 C): 4.38 log10 K; log K of transfer, gas to solvent ([1]; Propanone, 25 C): 4.71 log10 K; log K of transfer, gas to solvent ([1]; Tetrahydrofuran, 25 C): 4.39 log10 K; log K of transfer, water to solvent ([2]; Acetone): -1.02 log10 K; log K of transfer, water to solvent ([2]; Butanone): -1.03 log10 K; log K of transfer, water to solvent ([2]; Hexadecane): -2.56 log10 K; log K of transfer, water to solvent ([2]; Octan-1-ol(dry)): -1.35 log10 K; log K of transfer, water to solvent ([2]; Tetrahydrofuran): -1.34 log10 K
2.79 log10 K	-2.11 log10 K	CCCC(C)(C)C	–
3.64 log10 K	0.72 log10 K	Fc1ccccc1Cl	–
3.55 log10 K	0.63 log10 K	Fc1ccc(Cl)cc1	–
3.84 log10 K	4.54 log10 K	Oc1ccc(F)cc1	log K of transfer, gas to solvent ([1]; 1,2-Dichloroethane, 25 C): 5.25 log10 K; log K of transfer, gas to solvent ([1]; CCl4, 25 C): 4.28 log10 K
2.04 log10 K	1.18 log10 K	CSC	log K of transfer, gas to solvent ([1]; Hexane, 25 C): 2.17 log10 K
3.04 log10 K	-1.99 log10 K	CCCC(C)CC (centres unmarked)	–
3.51 log10 K	-2.18 log10 K	CCCCC(C)CC (centres unmarked)	–
3.68 log10 K	3.06 log10 K	CCCCC(C)(C)O	–
3.98 log10 K	3.46 log10 K	Cc1ccc(C)nc1	–
3.24 log10 K	3.25 log10 K	CCCC(C)(C)O	–
3.27 log10 K	2.41 log10 K	CCCC(=O)CC	–
3.64 log10 K	-1.4 log10 K	C[C@H]1CC[C@H](C)CC1	–
1.15 log10 K	-0.364 log10 K	CC(C)F	–
3.83 log10 K	5.74 log10 K	CN1CCCC1=O	–
1.59 log10 K	1.54 log10 K	CCOC	–
4.31 log10 K	3.83 log10 K	Cc1ccncc1C	–
4.05 log10 K	3.07 log10 K	CC1CCCCC1=O (centres unmarked)	–
3.53 log10 K	0.65 log10 K	Fc1cccc(Cl)c1	–
4.04 log10 K	3.54 log10 K	Cc1cccnc1C	–
4.01 log10 K	0.94 log10 K	CCCSCCC	–
4.6 log10 K	-1.28 log10 K	CC(C)(C)C1CCCCC1	–
4.58 log10 K	6.57 log10 K	CCCCNC(C)=O	–

Further lines, the molecule ahead of its results:

SMILES	log K of transfer, gas to solvent ([1]; Hexadecane, 25 C)	log K of transfer, gas to solvent ([1]; Water, 25 C)	other results
CCCN	2.14 log10 K	3.22 log10 K	log K of transfer, gas to solvent ([1]; 1,2-Dichloroethane, 25 C): 2.96 log10 K; log K of transfer, gas to solvent ([1]; Benzene, 25 C): 2.7 log10 K; log K of transfer, gas to solvent ([1]; CCl4, 25 C): 2.63 log10 K; log K of transfer, gas to solvent ([1]; Chlorobenzene, 25 C): 2.63 log10 K; log K of transfer, gas to solvent ([1]; Chloroform, 25 C): 3.47 log10 K; log K of transfer, gas to solvent ([1]; Cyclohexane, 25 C): 2.24 log10 K; log K of transfer, gas to solvent ([1]; Di-n-butyl ether, 25 C): 2.14 log10 K; log K of transfer, gas to solvent ([1]; Hexane, 25 C): 2.26 log10 K; log K of transfer, gas to solvent ([1]; Toluene, 25 C): 2.57 log10 K
CCF	0.751 log10 K	-0.3 log10 K	log K of transfer, gas to solvent ([1]; Tetrahydrofuran, 25 C): 1.31 log10 K
CCCC1CCCCC1	4.31 log10 K	-1.32 log10 K	–
C1C2CC3CC1CC(C2)C3	4.93 log10 K	0.12 log10 K	–
CCCF	1.25 log10 K	-0.24 log10 K	–
O=C1CCCCCCC1	4.98 log10 K	3.38 log10 K	–
CCCCCCCCCCCCCO	7.13 log10 K	2.38 log10 K	–
CCCCCCCC(C)C	4.45 log10 K	-2.27 log10 K	–
CCCCC1CCCCC1	4.8 log10 K	-1.44 log10 K	–
C=CCCCCCCCC	4.53 log10 K	-1.64 log10 K	–
CC(=O)CC(C)C	3.09 log10 K	2.24 log10 K	–
CCCCCCCCN	4.6 log10 K	2.68 log10 K	–
CCCCCCCCCCCCCCO	7.63 log10 K	2.26 log10 K	log K of transfer, gas to solvent ([1]; Decan-1-ol, 25 C): 8.88 log10 K; log K of transfer, gas to solvent ([1]; Hexan-1-ol, 25 C): 8.94 log10 K; log K of transfer, gas to solvent ([1]; Propan-2-ol, 25 C): 9.05 log10 K
CCCCCCC(C)C	3.96 log10 K	-2.15 log10 K	–
C[C@@H]1CCCC[C@@H]1C	3.85 log10 K	-1.17 log10 K	–
CCCCCC1CCCC1	4.6 log10 K	-1.87 log10 K	–
OC1CCCC1	3.24 log10 K	4.03 log10 K	log K of transfer, gas to solvent ([1]; Propanone, 25 C): 4.6 log10 K
N	0.319 log10 K	3.19 log10 K	log K of transfer, gas to solvent ([1]; 2-Methylpropan-1-ol, 25 C): 1.86 log10 K; log K of transfer, gas to solvent ([1]; Butan-1-ol, 25 C): 1.76 log10 K; log K of transfer, gas to solvent ([1]; Butanone, 25 C): 1.42 log10 K; log K of transfer, gas to solvent ([1]; CCl4, 25 C): 0.79 log10 K; log K of transfer, gas to solvent ([1]; Chlorobenzene, 25 C): 0.999 log10 K; log K of transfer, gas to solvent ([1]; Chloroform, 25 C): 1.77 log10 K; log K of transfer, gas to solvent ([1]; Ethanol, 25 C): 2.01 log10 K; log K of transfer, gas to solvent ([1]; Methanol, 25 C): 2.26 log10 K; log K of transfer, gas to solvent ([1]; Propan-1-ol, 25 C): 1.76 log10 K; log K of transfer, gas to solvent ([1]; Propan-2-ol, 25 C): 1.74 log10 K; log K of transfer, gas to solvent ([1]; Propanone, 25 C): 1.48 log10 K
CC(C)CCC(C)(C)C	3.57 log10 K	-2.15 log10 K	–

SMILES	log K of transfer, gas to solvent ([1]; Hexadecane, 25 C)	log K of transfer, gas to solvent ([1]; Water, 25 C)	other results
OC1CCCCCC1	4.4 log10 K	4.02 log10 K	–
C1CCCCCCC1	4.33 log10 K	-0.63 log10 K	–
CCCCCCCCCCCO	6.12 log10 K	2.5 log10 K	log K of transfer, gas to solvent ([1]; Decan-1-ol, 25 C): 7.53 log10 K
C=CCCCCCCCCC	5.02 log10 K	-1.75 log10 K	–
CNC=O	2.86 log10 K	6.57 log10 K	log K of transfer, gas to solvent ([1]; Propanone, 25 C): 5.39 log10 K
COC1CCCCC1	3.86 log10 K	2.43 log10 K	–
CC(=O)C1CCCCC1	4.62 log10 K	3.28 log10 K	–
C=CCCCCCCCCCC	5.51 log10 K	-1.87 log10 K	–
CCCCCCCCCCCCCCCCCCCO	10.2 log10 K	1.66 log10 K	–
CN1CCCCC1=O	3.97 log10 K	4.91 log10 K	–
CCCCCCCCCCCCCCCO	8.14 log10 K	2.14 log10 K	log K of transfer, gas to solvent ([1]; Di-n-butyl ether, 25 C): 9.07 log10 K
OC1CCCCCCC1	5.05 log10 K	3.81 log10 K	–
CC1CCNCC1	3.23 log10 K	3.15 log10 K	–
O=C1CCCCCC1	4.37 log10 K	3.42 log10 K	–
CC1CCCNC1 (centres unmarked)	3.23 log10 K	3.16 log10 K	–
CCCCN(C=O)CCCC	5.62 log10 K	4.34 log10 K	–
C1CCSC1	3.06 log10 K	1.66 log10 K	–
CCCCCCCCCCCCCCCCCO	9.16 log10 K	1.9 log10 K	–
CC1CCCCN1 (centres unmarked)	3.23 log10 K	3.15 log10 K	–
